Patent US8309718B2, “4-pyrazolyl-N-arylpyrimidin-2-amines and 4-pyrazolyl-N-heteroarylpyrimidin-2-amines as janus kinase inhibitors” (Incyte Corporation, priority 2007, dated 2012)
pIC50: −log10 of the molar value.

target: T1, human JAK2 (Homo sapiens, UniProt O60674); experiment: In vitro JAK kinase assay (HTRF, phosphorylation of biotinylated peptide); format: biochemical; details: catalytic domain a.a. 828-1132, 30 μM ATP, 500 nM peptide, room temperature 1 hr; read-out: JAK-2 IC50
T1 construct: JAK2 (a.a. 828-1132); His tag (N); made in house; host or cells: insect cells (baculovirus)
T1 sequence (O60674 828-1132): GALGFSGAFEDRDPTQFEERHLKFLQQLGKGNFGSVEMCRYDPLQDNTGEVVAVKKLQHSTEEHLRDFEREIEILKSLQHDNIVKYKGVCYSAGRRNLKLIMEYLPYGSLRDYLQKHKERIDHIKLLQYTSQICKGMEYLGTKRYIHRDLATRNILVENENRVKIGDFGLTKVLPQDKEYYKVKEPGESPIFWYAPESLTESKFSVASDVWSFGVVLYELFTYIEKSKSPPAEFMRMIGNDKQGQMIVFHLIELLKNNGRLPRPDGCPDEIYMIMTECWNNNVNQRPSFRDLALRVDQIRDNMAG
Description: Compounds herein were tested for inhibitory activity of JAK targets according to the following in vitro assay described in Park et al, Analytical Biochemistry 1999, 269, 94-104. The catalytic domains of human JAK1 (a.a. 837-1142), JAK2 (a.a. 828-1132) and JAK3 (a.a. 781-1124) with an N-terminal His tag were expressed using baculovirus in insect cells and purified. The catalytic activity of JAK1, JAK2 or JAK3 was assayed by measuring the phosphorylation of a biotinylated peptide. The phosphorylated peptide was detected by homogenous time resolved fluorescence (HTRF). IC50s of compounds were measured for each kinase in the reactions that contain the enzyme, ATP and 500 nM peptide in 50 mM Tris (pH 7.8) buffer with 100 mM NaCl, 5 mM DTT, and 0.1 mg/mL (0.01%) BSA. The ATP concentration in the reactions was 90 μM for JAK1, 30 μM for Jak2 and 3 μM for JAK3. Reactions were carried out at room temperature for 1 hr and then stopped with 20 μL 45 mM EDTA, 300 nM SA-APC, 6 nM Eu-Py20 in assay buffer (Perkin Elmer, Boston, Mass.). Binding to the Europium labeled antibody took place for 40 minutes and HTRF signal was measured on a Fusion plate reader (Perkin Elmer, Boston, Mass.). Certain of the above compounds were tested according to this assay.

Question: How did the pIC50 turn out when CC(=O)N[C@@H]1CCN(C(=O)c2ccc(Nc3nccc(-c4cnn(C(CC#N)C5CC5)c4)n3)cc2)C1 (mixture of isomers) [Example 268, N-((3R)-1-(4-(4-(1-(2-cyano-1-cyclopropylethyl)-1H-pyrazol-4-yl)pyrimidin-2-ylamino)benzoyl)pyrrolidin-3-yl)acetamide] was run?
Answer: The pIC50 was > 7.00.

Question: With CN(C)C1CCN(C(=O)c2ccc(Nc3nccc(-c4cnn(C(CC#N)C5CC5)c4)n3)cc2)C1 (mixture of isomers) [Example 270, 3-cyclopropyl-3-(4-(2-(4-(3-(dimethylamino)pyrrolidine-1-carbonyl)phenylamino)pyrimidin-4-yl)-1H-pyrazol-1-yl)propanenitrile] as the compound, how does the pIC50 read?
Answer: Its pIC50 is > 7.00.

Question: N#CCC(C1CC1)n1cc(-c2ccnc(Nc3ccc(C(=O)N4CC[C@H](F)C4)cc3)n2)cn1 (mixture of isomers) [Example 271, 3-cyclopropyl-3-(4-(2-(4-((S)-3-fluoropyrrolidine-1-carbonyl)phenylamino)pyrimidin-4-yl)-1H-pyrazol-1-yl)propanenitrile] was tested. Which pIC50 did it give?
Answer: Its pIC50 is > 7.00.

Question: With N#CCC(C1CCOCC1)n1cc(-c2ccnc(Nc3ccc(C(=O)N4CC[C@@H](O)C4)cc3)n2)cn1 (mixture of isomers) [Example 315, 3-(4-{2-[(4-{[(3R)-3-hydroxypyrrolidin-1-yl]carbonyl}phenyl)amino]pyrimidin-4-yl}-1H-pyrazol-1-yl)-3-(tetrahydro-2H-pyran-4-yl)propanenitrile] as the compound, how does the pIC50 read?
Answer: Its pIC50 is > 7.00.

Question: How did the pIC50 turn out when CO[C@H]1CCN(C(=O)c2ccc(Nc3nccc(-c4cnn(C(CC#N)C5CCOCC5)c4)n3)cc2)C1 (mixture of isomers) [Example 316, 3-(4-{2-[(4-{[(3S)-3-methoxypyrrolidin-1-yl]carbonyl}phenyl)amino]pyrimidin-4-yl}-1H-pyrazol-1-yl)-3-(tetrahydro-2H-pyran-4-yl)propanenitrile] was run?
Answer: Its pIC50 is > 7.00.

Question: How did the pIC50 turn out when N#CCC(C1CCOCC1)n1cc(-c2ccnc(Nc3ccc(C(=O)N4CC[C@H](C#N)C4)cc3)n2)cn1 (mixture of isomers) [Example 317, (3S)-1-{4-[(4-{1-[2-cyano-1-(tetrahydro-2H-pyran-4-yl)ethyl]-1H-pyrazol-4-yl}pyrimidin-2-yl)amino]benzoyl}pyrrolidine-3-carbonitrile] was run?
Answer: The pIC50 was > 7.00.

Question: COc1cnc(Nc2cccc(C(=O)N3CC[C@@H](O)C3)c2)nc1-c1cnn(C(CC#N)C2CC2)c1 (mixture of isomers) [Example 325, 3-cyclopropyl-3-(4-{2-[(3-{[(3R)-3-hydroxypyrrolidin-1-yl]carbonyl}phenyl)amino]-5-methoxypyrimidin-4-yl}-1H-pyrazol-1-yl)propanenitrile] was tested. Which pIC50 did it give?
Answer: The pIC50 was > 7.00.

Question: COc1cnc(Nc2cccc(C(=O)N3CC[C@H](OC)C3)c2)nc1-c1cnn(C(CC#N)C2CC2)c1 (mixture of isomers) [Example 326, 3-cyclopropyl-3-(4-{5-methoxy-2-[(3-{[(3S)-3-methoxypyrrolidin-1-yl]carbonyl}phenyl)amino]pyrimidin-4-yl}-1H-pyrazol-1-yl)propanenitrile] was tested. Which pIC50 did it give?
Answer: The pIC50 was > 7.00.

Question: COc1cnc(Nc2cccc(C(=O)N3CC[C@H](C#N)C3)c2)nc1-c1cnn(C(CC#N)C2CC2)c1 (mixture of isomers) [Example 327, (3S)-1-[3-({4-[1-(2-cyano-1-cyclopropylethyl)-1H-pyrazol-4-yl]-5-methoxypyrimidin-2-yl}amino)benzoyl]pyrrolidine-3-carbonitrile] was tested. Which pIC50 did it give?
Answer: Its pIC50 is > 7.00.

Question: N#CCC(CC1CCN(C(=O)c2ccc(F)cc2F)CC1)n1cc(-c2ccnc(Nc3ccc(-n4ccnc4)cc3)n2)cn1 (racemic) [Example 1, 3-(4-(2-(4-(1H-imidazol-1-yl)phenylamino)pyrimidin-4-yl)-1H-pyrazol-1-yl)-4-(1-(2,4-difluorobenzoyl)piperidin-4-yl)butanenitrile] was tested. Which pIC50 did it give?
Answer: The pIC50 was > 7.00.

Question: How did the pIC50 turn out when N#CCC(CC1CCN(C(=O)c2ccc(F)cc2F)CC1)n1cc(-c2ccnc(Nc3ccc(N4CCNCC4)cc3)n2)cn1 (racemic) [Example 2, 4-(1-(2,4-difluorobenzoyl)piperidin-4-yl)-3-(4-(2-(4-(piperazin-1-yl)phenylamino)pyrimidin-4-yl)-1H-pyrazol-1-yl)butanenitrile] was run?
Answer: Its pIC50 is > 7.00.

Question: How did the pIC50 turn out when COc1ccc(Nc2nccc(-c3cnn(C(CC#N)CC4CCN(C(=O)c5ccc(F)cc5F)CC4)c3)n2)cc1 (racemic) [Example 3, 4-(1-(2,4-difluorobenzoyl)piperidin-4-yl)-3-(4-(2-(4-methoxyphenylamino)pyrimidin-4-yl)-1H-pyrazol-1-yl)butanenitrile] was run?
Answer: Its pIC50 is > 7.00.

Question: How did the pIC50 turn out when N#CCC(CC1CCN(C(=O)c2ccc(F)cc2F)CC1)n1cc(-c2ccnc(Nc3ccccc3)n2)cn1 (racemic) [Example 4, 4-(1-(2,4-difluorobenzoyl)piperidin-4-yl)-3-(4-(2-(phenylamino)pyrimidin-4-yl)-1H-pyrazol-1-yl)butanenitrile] was run?
Answer: Its pIC50 is > 7.00.

Question: N#CCC(CC1CCN(C(=O)c2ccc(F)cc2F)CC1)n1cc(-c2ccnc(Nc3ccc(N4CCOCC4)cc3)n2)cn1 (racemic) [Example 5, 4-(1-(2,4-difluorobenzoyl)piperidin-4-yl)-3-(4-(2-(4-morpholinophenylamino)pyrimidin-4-yl)-1H-pyrazol-1-yl)butanenitrile] was tested. Which pIC50 did it give?
Answer: Its pIC50 is > 7.00.

Question: How did the pIC50 turn out when N#CCC(CC1CCN(C(=O)c2ccc(F)cc2F)CC1)n1cc(-c2ccnc(Nc3ccc(-n4cccn4)cc3)n2)cn1 (racemic) [Example 6, 3-(4-(2-(4-(1H-pyrazol-1-yl)phenylamino)pyrimidin-4-yl)-1H-pyrazol-1-yl)-4-(1-(2,4-difluorobenzoyl)piperidin-4-yl)butanenitrile] was run?
Answer: Its pIC50 is > 7.00.

Question: How did the pIC50 turn out when N#CCC(CC1CCN(C(=O)c2ccc(F)cc2F)CC1)n1cc(-c2ccnc(Nc3cccc(-c4cnco4)c3)n2)cn1 (racemic) [Example 7, 4-(1-(2,4-difluorobenzoyl)piperidin-4-yl)-3-(4-(2-(3-(oxazol-5-yl)phenylamino)pyrimidin-4-yl)-1H-pyrazol-1-yl)butanenitrile] was run?
Answer: Its pIC50 is > 7.00.

Question: Cn1ccc(Nc2nccc(-c3cnn(C(CC#N)CC4CCN(C(=O)c5ccc(F)cc5F)CC4)c3)n2)n1 (racemic) [Example 8, 4-(1-(2,4-difluorobenzoyl)piperidin-4-yl)-3-(4-(2-(1-methyl-1H-pyrazol-3-ylamino)pyrimidin-4-yl)-1H-pyrazol-1-yl)butanenitrile] was tested. Which pIC50 did it give?
Answer: Its pIC50 is > 7.00.

Question: With N#CCC(CC1CCN(C(=O)c2ccc(F)cc2F)CC1)n1cc(-c2ccnc(Nc3ccc(Oc4ccccc4)cc3)n2)cn1 (racemic) [Example 11, 4-(1-(2,4-difluorobenzoyl)piperidin-4-yl)-3-(4-(2-(4-phenoxyphenylamino)pyrimidin-4-yl)-1H-pyrazol-1-yl)butanenitrile] as the compound, how does the pIC50 read?
Answer: Its pIC50 is > 7.00.

Question: N#CCC1(n2cc(-c3ccnc(Nc4ccc(-n5cccn5)cc4)n3)cn2)CCN(C(=O)c2ccno2)CC1 (racemic) [Example 12, 2-(4-(4-(2-(4-(1H-pyrazol-1-yl)phenylamino)pyrimidin-4-yl)-1H-pyrazol-1-yl)-1-(isoxazole-5-carbonyl)piperidin-4-yl)acetonitrile] was tested. Which pIC50 did it give?
Answer: The pIC50 was > 7.00.

Question: How did the pIC50 turn out when N#CCC1(n2cc(-c3ccnc(Nc4cccc(-c5cnco5)c4)n3)cn2)CCN(C(=O)c2ccno2)CC1 (racemic) [Example 13, 2-(1-(isoxazole-5-carbonyl)-4-(4-(2-(3-(oxazol-5-yl)phenylamino)pyrimidin-4-yl)-1H-pyrazol-1-yl)piperidin-4-yl)acetonitrile] was run?
Answer: Its pIC50 is > 7.00.

Question: N#CCC1(n2cc(-c3ccnc(Nc4cccc(-c5nnn[nH]5)c4)n3)cn2)CCN(C(=O)c2ccno2)CC1 (racemic) [Example 14, 2-(4-(4-(2-(3-(1H-tetrazol-5-yl)phenylamino)pyrimidin-4-yl)-1H-pyrazol-1-yl)-1-(isoxazole-5-carbonyl)piperidin-4-yl)acetonitrile] was tested. Which pIC50 did it give?
Answer: Its pIC50 is > 7.00.

Question: How did the pIC50 turn out when N#CCC1(n2cc(-c3ccnc(Nc4ccc(S(=O)(=O)N5CCOCC5)cc4)n3)cn2)CCN(C(=O)c2ccno2)CC1 (racemic) [Example 15, 2-(1-(isoxazole-5-carbonyl)-4-(4-(2-(4-(morpholinosulfonyl)phenylamino)pyrimidin-4-yl)-1H-pyrazol-1-yl)piperidin-4-yl)acetonitrile] was run?
Answer: The pIC50 was > 7.00.

Question: COc1ccc(Nc2nccc(-c3cnn(C4(CC#N)CCN(C(=O)c5ccno5)CC4)c3)n2)cn1 (racemic) [Example 16, 2-(1-(isoxazole-5-carbonyl)-4-(4-(2-(6-methoxypyridin-3-ylamino)pyrimidin-4-yl)-1H-pyrazol-1-yl)piperidin-4-yl)acetonitrile] was tested. Which pIC50 did it give?
Answer: Its pIC50 is > 7.00.

Question: How did the pIC50 turn out when N#CCC1(n2cc(-c3ccnc(Nc4ccc(-n5cccn5)cc4)n3)cn2)CN(S(=O)(=O)C2CC2)C1 (racemic) [Example 17, 2-(3-(4-(2-(4-(1H-pyrazol-1-yl)phenylamino)pyrimidin-4-yl)-1H-pyrazol-1-yl)-1-(cyclopropylsulfonyl)azetidin-3-yl)acetonitrile] was run?
Answer: The pIC50 was > 7.00.

Question: How did the pIC50 turn out when N#CCC(C1CCNCC1)n1cc(-c2ccnc(Nc3ccc(N4CCOCC4)cc3)n2)cn1 (racemic) [Example 22, 3-(4-(2-(4-morpholinophenylamino)pyrimidin-4-yl)-1H-pyrazol-1-yl)-3-(piperidin-4-yl)propanenitrile] was run?
Answer: The pIC50 was > 7.00.
